According to patent US20240285808A1, “MOLECULAR PROBES FOR IN VIVO DETECTION OF ALDEHYDES” (The General Hospital Corporation, priority 2021, published 2024):
Read-outs that look alike come from different tables or passages of the source.

Tested on: myocardium of SAMP8/SAMR1 mice with TAC
Details: 20 min post injection
Excerpt: Combined Heart and Lung Fibrosis Model:
Left ventricular dysfunction with pulmonary hypertension was induced by left thoracotomy transverse aortic constriction surgery (TAC) in 6-month-old senescence-accelerated-prone/resistant mice (SAMP8/SAMR1), which is a well-established model of pressure overload-induced cardiac hypertrophy that can induce heart and lung fibrosis. The transverse aorta was encircled with 7-0 nylon suture and tied tightly around a pre-sterilized, blunt-end of a 27-gauge needle. After securing the knot, the needle was removed, and aortic flow resumed. Another two groups of SAMP8 and SAMR1 mice received sham surgery as control. 3-weeks post-surgery, mice were anesthetized with isoflurane (1.5%) and imaged at a 4.7 Tesla Bruker MRI scanner.
For combined heart and lung imaging, a series of baseline images (2D T1 weighted FLASH for heart and 3D-UTE for lung) were first acquired. 2D T1 weighted FLASH: repetition time/echo time=18.24/3.54 ms; flip angle, 50°; field of view, 36×36 mm^2; matrix size, 138×138 mm^2; slice thickness, 1 mm; acquisition time, 3 minutes 50 seconds. 3D-UTE: repetition time/echo time=4/0.01225 ms; flip angle, 16°; field of view, 32×32 mm^2; matrix size, 128×128 mm^2; slice thickness, 0.25 mm; acquisition time, 3 minutes 36 seconds. Then a bolus of Gd-9 complex was administered i.v. and imaging performed for a period of 40 min p.i. with the repetition acquisition of 2D T1 weighted FLASH and 3D-UTE sequences. Following the imaging session, animals were sacrificed and heart and lung tissue was subjected to histopathologic analysis.
For heart imaging analysis, FLASH image pre-contrast and immediately post-contrast were used to define regions of interest (ROIs) in the myocardium that excluded blood vessels. The percentage of signal intensity change (% SI) was calculated by comparing the SI measured after probe injection to SI measured prior to probe injection.

Structure (SMILES): NN1CCN(C(=O)CCC(C(=O)[O-])N2CCN(CC(=O)[O-])CCN(CC(=O)[O-])CCN(C(CCC(=O)N3CCN(N)CC3)C(=O)[O-])CC2)CC1.[Gd+3] (stereo not drawn) [Gd-9, cis-1,4-Gd-(CHyd)2]
- % SI change of myocardium (SAMP1-Sham): 7.8 ± 4.7%
- % SI change of myocardium (SAMP1-TAC): 21.5 ± 8.4%
- % SI change of myocardium (SAMP8-Sham): 8.2 ± 5.3%
- % SI change of myocardium (SAMP8-TAC): 22 ± 7.9%
